The source of these data is patent US9957264B2 (Merck Sharp & Dohme Corp., priority 2013, dated 2018).

The target in test [1] is JAK1 (recombinant purified GST-tagged catalytic domain) (Homo sapiens (Human), UniProt P23458). Put plainly: Jak Biochemical HTRF Assay (JAK1). Particulars: [ATP] 31.8 μM. The method in brief:
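GST-tagged human catalytic domains of JAK1 or JAK2 phosphorylated a biotinylated peptide substrate for 120 min at room temperature after ATP addition. Reaction quenched with EDTA stop buffer containing streptavidin-Dylight 650 and Eu-pY20 antibody; HTRF 665/615 nm ratio normalized to untreated controls, IC50 from 4-parameter fit.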
(In general: In TR-FRET formats the signal depends on donor and acceptor labels being close together.)

The target in test [2] is JAK2 (recombinant purified GST-tagged catalytic domain) (Homo sapiens (Human), UniProt O60674). Put plainly: Jak Biochemical HTRF Assay (JAK2). Particulars: [ATP] 8.5 μM.
Chain of JAK2 (recombinant purified GST-tagged catalytic domain) (O60674 849-1124): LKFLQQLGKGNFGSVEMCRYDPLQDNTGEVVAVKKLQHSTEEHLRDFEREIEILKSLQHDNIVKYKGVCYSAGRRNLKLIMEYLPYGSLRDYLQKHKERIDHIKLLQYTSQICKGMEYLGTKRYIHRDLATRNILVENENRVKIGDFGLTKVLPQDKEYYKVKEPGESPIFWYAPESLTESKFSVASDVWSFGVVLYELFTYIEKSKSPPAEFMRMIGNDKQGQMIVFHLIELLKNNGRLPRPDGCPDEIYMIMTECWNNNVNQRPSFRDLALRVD

pIC50: −log10 of the molar value.

Chain of JAK1 (recombinant purified GST-tagged catalytic domain) (P23458 875-1153): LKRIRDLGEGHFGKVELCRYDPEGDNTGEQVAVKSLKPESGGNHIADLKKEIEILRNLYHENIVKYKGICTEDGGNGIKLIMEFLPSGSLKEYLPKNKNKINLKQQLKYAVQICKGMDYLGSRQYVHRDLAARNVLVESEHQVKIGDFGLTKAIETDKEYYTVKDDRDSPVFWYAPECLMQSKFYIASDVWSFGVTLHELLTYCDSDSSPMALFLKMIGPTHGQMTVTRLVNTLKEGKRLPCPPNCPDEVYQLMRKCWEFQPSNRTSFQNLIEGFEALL

As a reminder, the pIC50 is −log10 of the IC50, conventionally taken in molar units. In the case of `N#CCC1(n2nc(Nc3ccc(C(F)(F)F)cc3)c3c(=O)[nH]ccc32)CCC(N2CC(F)C2)CC1` (single isomer, unassigned) [Example 18-2, 2-(4-(3-fluoroazetidin-1-yl)-1-(4-oxo-3-((4-(trifluoromethyl)phenyl)amino)-4,5-dihydro-1H-pyrazolo[4,3-c]pyridin-1-yl)cyclohexyl)acetonitrile], the pIC50 is 8.17 in test [1] and 7.19 in test [2].

For `COC(=O)N1CCC(CC#N)(n2nc(Nc3ccc(C#N)cc3)c3c(=O)[nH]ccc32)CC1` [Example 5-145, methyl 4-(cyanomethyl)-4-(3-((4-cyanophenyl)amino)-4-oxo-4,5-dihydro-1H-pyrazolo[4,3-c]pyridin-1-yl)piperidine-1-carboxylate], the pIC50 is 9.72 in test [1] and 8.91 in test [2].

With `CN(C)S(=O)(=O)c1ccc(Nc2nn(C3(CC#N)CCN(CCc4ccccc4)CC3)c3cc[nH]c(=O)c23)cc1` [Example 8-18, 4-((1-(4-(cyanomethyl)-1-phenethylpiperidin-4-yl)-4-oxo-4,5-dihydro-1H-pyrazolo[4,3-c]pyridin-3-yl)amino)-N,N-dimethylbenzenesulfonamide], the values for the pIC50 in test [1] and in test [2] were 8.50 and 7.86, respectively.

For the molecule `CC(C)NC(c1ccc(Nc2nn([C@]3(CC#N)CCCOC3)c3cc[nH]c(=O)c23)cc1)C(F)(F)F` (single isomer, unassigned) [Example 5-205, [(3S)-3-{4-oxo-3-[(4-{(1R or 1S)-2,2,2-trifluoro-1-[(1-methylethyl)amino]ethyl}phenyl)amino]-4,5-dihydro-1H-pyrazolo[4,3-c]pyridin-1-yl}tetrahydro-2H-pyran-3-yl]acetonitrile], the pIC50 in test [1] was 9.77; in test [2], 9.70.

Consider `CCN(CC(F)(F)F)C(=O)c1ccc(Nc2nn([C@]3(CC#N)CC[C@@H](C(=O)OC(C)(C)C)OC3)c3cc[nH]c(=O)c23)cc1C` [Example 20-14, (2S,5S)-tert-butyl 5-(cyanomethyl)-5-(3-((4-(ethyl(2,2,2-trifluoroethyl)carbamoyl)-3-methylphenyl)amino)-4-oxo-4,5-dihydro-1H-pyrazolo[4,3-c]pyridin-1-yl)tetrahydro-2H-pyran-2-carboxylate], for which the pIC50 in test [1] is 9.55; in test [2], 9.29.

Turning to `CN(C)[C@H]1CC[C@](CC#N)(n2nc(Nc3ccc4c(c3)CN(C(C)(C)C)S4(=O)=O)c3c(=O)[nH]ccc32)CC1` [Example 18-37, Trans 2-(1-(3-((2-(tert-butyl)-1,1-dioxido-2,3-dihydrobenzo[d]isothiazol-5-yl)amino)-4-oxo-4,5-dihydro-1H-pyrazolo[4,3-c]pyridin-1-yl)-4-(dimethylamino)cyclohexyl)acetonitrile], the results for the pIC50 in test [1] and in test [2] were 9.64 and 8.35, respectively.

Turning to `N#CC[C@@]1(n2nc(Nc3ccc4nccc(F)c4c3)c3c(=O)[nH]ccc32)CCOC1` (single isomer, unassigned) [Example 5-245, [(3R or 3S)-3-{3-[(4-fluoroquinolin-6-yl)amino]-4-oxo-4,5-dihydro-1H-pyrazolo[4,3-c]pyridin-1-yl}tetrahydrofuran-3-yl]acetonitrile], the pIC50 was 8.41 in test [1] and 7.37 in test [2].

With `N#CCC1(n2nc(Nc3ccc(C(F)(F)F)cc3)c3c(=O)[nH]ccc32)CCC(N2CC(F)C2)CC1` (single isomer, unassigned) [Example 18-1, 2-(4-(3-fluoroazetidin-1-yl)-1-(4-oxo-3-((4-(trifluoromethyl)phenyl)amino)-4,5-dihydro-1H-pyrazolo[4,3-c]pyridin-1-yl)cyclohexyl)acetonitrile], the figures for the pIC50 in test [1] and in test [2] were 9.59 and 9.03, respectively.

Turning to `CS(=O)(=O)c1ccc(Nc2nn([C@@]3(CC#N)CCCOC3)c3cc[nH]c(=O)c23)cc1` [Example 5-30, (R)-2-(3-(3-((4-(methylsulfonyl)phenyl)amino)-4-oxo-4,5-dihydro-1H-pyrazolo[4,3-c]pyridin-1-yl)tetrahydro-2H-pyran-3-yl)acetonitrile], the pIC50 was 7.90 in test [1] and 7.24 in test [2].

For `COC(=O)N1CCC(CC#N)(n2nc(Nc3ccc(S(=O)(=O)C(C)(C)C)cc3)c3c(=O)[nH]ccc32)CC1` [Example 5-150, methyl 4-(3-((4-(tert-butylsulfonyl)phenyl)amino)-4-oxo-4,5-dihydro-1H-pyrazolo [4,3-c]pyridin-1-yl)-4-(cyanomethyl)piperidine-1-carboxylate], the values for the pIC50 in test [1] and in test [2] were 10.00 and 9.85, respectively.

As to `Cc1cc(Nc2nn(C3(CC#N)CCN(c4ccc(C#N)cn4)CC3F)c3cc[nH]c(=O)c23)ccc1C(=O)N1CCSCC1` (stereo in doubt) [Example 15-6, 6-((3R,4R)-4-(cyanomethyl)-3-fluoro-4-(3-((3-methyl-4-(thiomorpholine-4-carbonyl)phenyl)amino)-4-oxo-4,5-dihydro-1H-pyrazolo[4,3-c]pyridin-1-yl)piperidin-1-yl)nicotinonitrile], the figures for the pIC50 in test [1] and in test [2] were 10.00 and 10.05, respectively.

Consider `Cc1cc(Nc2nn([C@]3(CC#N)CC[C@@H](C(=O)OC(C)(C)C)OC3)c3cc[nH]c(=O)c23)ccc1C(=O)N1CCOCC1` [Example 20-5, (2S,5S)-tert-butyl 5-(cyanomethyl)-5-(3-((3-methyl-4-(morpholine-4-carbonyl)phenyl)amino)-4-oxo-4,5-dihydro-1H-pyrazolo[4,3-c]pyridin-1-yl)tetrahydro-2H-pyran-2-carboxylate], for which the pIC50 in test [1] is 9.89; in test [2] it was 9.72.

Regarding `CS(=O)(=O)c1ccc(Nc2nn(C3(CC#N)CCN(c4ccc(C#N)cn4)CC3)c3cc[nH]c(=O)c23)cc1` [Example 15-2, 6-(4-(cyanomethyl)-4-(3-((4(methylsulfonyl)phenyl)amino)-4-oxo-4,5-dihydro-1H-pyrazolo[4,3-c]pyridin-1-yl)piperidin-1-yl)nicotinonitrile], the pIC50 in test [1] and in test [2] was 10.40 each time.

For `COCC(=O)N1CCC(CC#N)(n2nc(Nc3ccc(S(=O)(=O)N(C)C)cc3)c3c(=O)[nH]ccc32)CC1` [Example 9-3, 4-({1-[4-(cyanomethyl)-1-(methoxyacetyl)piperidin-4-yl]-4-oxo-4,5-dihydro-1H-pyrazolo[4,3-c]pyridin-3-yl}amino)-N,N-dimethylbenzenesulfonamide], the values for the pIC50 in test [1] and in test [2] were 9.62 and 8.79, respectively.

On to `CC(C)(C)S(=O)(=O)c1ccc(Nc2nn([C@]3(CC#N)CCOC3)c3cc[nH]c(=O)c23)cc1` (single isomer, unassigned) [Example 5-250, (R or S)-2-(3-(3-((4-(tert-butylsulfonyl)phenyl)amino)-4-oxo-4,5-dihydro-1H-pyrazolo[4,3-c]pyridin-1-yl)tetrahydrofuran-3-yl)acetonitrile], for which the pIC50 was 8.36 in test [1] and 7.92 in test [2].

Take `N#CCC1(n2nc(Nc3ccc(S(=O)(=O)N4CCC4)cc3)c3c(=O)[nH]ccc32)CCCC1` [Example 5-132, 2-(1-(3-((4-(azetidin-1-ylsulfonyl)phenyl)amino)-4-oxo-4,5-dihydro-1H-pyrazolo[4,3-c]pyridin-1-yl)cyclopentyl)acetonitrile]: the pIC50 in test [1] was 9.41; in test [2], 9.17.

For `CC(C)(C)S(=O)(=O)c1ccc(Nc2nn([C@@]3(CC#N)CCOC3)c3cc[nH]c(=O)c23)cc1` (single isomer, unassigned) [Example 5-249, (S or R)-2-(3-(3-((4-(tert-butylsulfonyl)phenyl)amino)-4-oxo-4,5-dihydro-1H-pyrazolo[4,3-c]pyridin-1-yl)tetrahydrofuran-3-yl)acetonitrile], the pIC50 in test [1] was 8.95; in test [2] it was 8.61.

For the molecule `CC(C)OC(=O)N1CCC(CC#N)(n2nc(Nc3ccc(S(=O)(=O)N(C)C)cc3)c3c(=O)[nH]ccc32)CC1` [Example 10-6, isopropyl 4-(cyanomethyl)-4-(3-((4-(N,N-dimethylsulfamoyl)phenyl)amino)-4-oxo-4,5-dihydro-1H-pyrazolo[4,3-c]pyridin-1-yl)piperidine-1-carboxylate], the pIC50 in test [1] was 9.92; in test [2], 9.57.

`COC(=O)N1CCC(CC#N)(n2nc(Nc3ccc4c(c3)CN(C(C)(C)C)S4(=O)=O)c3c(=O)[nH]ccc32)CC1` [Example 5-71, methyl 4-{3-[(2-tert-butyl-1,1-dioxo-2,3-dihydro-1,2-benzothiazol-5-yl)amino]-4-oxo-1H,4H,5H-pyrazolo [4,3-c]pyridin-1-yl}-4-(cyanomethyl)piperidine-1-carboxylate]: the pIC50 in test [1] was 10.10; in test [2] it was 9.82.

Turning to `N#CCC1(n2nc(Nc3ccc4c(c3)CN(CC(F)(F)F)C4=O)c3c(=O)[nH]ccc32)CCCC1` [Example 5-138, 2-(1-(4-oxo-3-((1-oxo-2-(2,2,2-trifluoroethyl)isoindolin-5-yl)amino)-4,5-dihydro-1H-pyrazolo[4,3-c]pyridin-1-yl)cyclopentyl)acetonitrile], the pIC50 is 9.51 in test [1] and 8.82 in test [2].

`Cc1cc(Nc2nn([C@]3(CC#N)CC[C@@H](C(=O)OC(C)(C)C)OC3)c3cc[nH]c(=O)c23)ccc1C(=O)N1CC(C)OC(C)C1` (single isomer, unassigned) [Example 20-12, (2S,5S)-tert-butyl 5-(cyanomethyl)-5-(3-((4-((2S,6S or 2R,6R)-2,6-dimethylmorpholine-4-carbonyl)-3-methylphenyl)amino)-4-oxo-4,5-dihydro-1H-pyrazolo[4,3-c]pyridin-1-yl)tetrahydro-2H-pyran-2-carboxylate]: the results for the pIC50 in test [1] and in test [2] were 9.60 and 9.35, respectively.
